Source: patent US11839613B2, “Pyrimidine derivatives as PGE2 receptor modulators” (IDORSIA PHARMACEUTICALS LTD, priority 2017, dated 2023)
Read-outs that look alike come from different tables or passages of the source.

How the values were obtained:
EP2 = EP2 (Homo sapiens (Human), UniProt P43116); test: hEP2 cAMP assay (SF295 glioblastoma cells, HTRF cAMP); format: cell-based; conditions: antagonistic activity
Method in brief: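 PGE2-driven cAMP accumulation was measured by HTRF in SF295 cells, which express endogenous EP2 only. Cells in assay buffer with 2 mM IBMX were pre-incubated 45 min at RT, then incubated 30 min at RT. Detection used competition between cellular cAMP and d2-cAMP for a cryptate anti-cAMP antibody.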

EP4 = EP4 (Homo sapiens (Human), UniProt P35408); test: hEP4 cAMP assay (BT549 breast cancer cells, HTRF cAMP); format: cell-based; conditions: antagonistic activity, PGE2 6 nM
Sequence of EP4 (P35408 whole entry): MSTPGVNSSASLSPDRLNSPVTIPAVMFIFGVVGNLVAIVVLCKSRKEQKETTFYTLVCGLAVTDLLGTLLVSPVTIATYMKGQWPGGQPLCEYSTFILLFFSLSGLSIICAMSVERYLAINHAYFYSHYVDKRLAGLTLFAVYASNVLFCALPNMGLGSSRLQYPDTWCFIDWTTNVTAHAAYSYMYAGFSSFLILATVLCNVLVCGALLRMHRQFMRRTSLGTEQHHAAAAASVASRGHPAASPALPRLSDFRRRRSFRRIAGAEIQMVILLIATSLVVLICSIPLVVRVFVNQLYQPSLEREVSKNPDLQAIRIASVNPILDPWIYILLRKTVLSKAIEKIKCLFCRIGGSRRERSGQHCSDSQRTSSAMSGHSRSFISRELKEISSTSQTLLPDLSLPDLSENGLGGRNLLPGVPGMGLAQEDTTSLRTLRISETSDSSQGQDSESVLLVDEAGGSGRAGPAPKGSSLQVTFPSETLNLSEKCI
Method in brief: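 cAMP accumulation quantified by HTRF competition between cellular cAMP and d2-labeled cAMP for cryptate anti-cAMP antibody. Cells: endogenously EP4-expressing BT549, buffer with 2 mM IBMX; 45 min RT compound preincubation preceded 30 min RT challenge with PGE2 at 6 nM final.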

PTGER4 (EP4) [1] = biological target: T1, PTGER4 (EP4) (Homo sapiens (Human), UniProt P35408)
T1 sequence (P35408 whole entry): as above

PTGER2 (EP2) = PTGER2 (EP2) (Homo sapiens (Human), UniProt P43116); test: hEP2 b-arrestin assay (PathHunter HEK 293 PTGER2 b-arrestin cells); format: cell-based; conditions: antagonistic activity, beta-arrestin assay; read-out: hEP2 b-arr IC50
Sequence of PTGER2 (EP2) (P43116 whole entry): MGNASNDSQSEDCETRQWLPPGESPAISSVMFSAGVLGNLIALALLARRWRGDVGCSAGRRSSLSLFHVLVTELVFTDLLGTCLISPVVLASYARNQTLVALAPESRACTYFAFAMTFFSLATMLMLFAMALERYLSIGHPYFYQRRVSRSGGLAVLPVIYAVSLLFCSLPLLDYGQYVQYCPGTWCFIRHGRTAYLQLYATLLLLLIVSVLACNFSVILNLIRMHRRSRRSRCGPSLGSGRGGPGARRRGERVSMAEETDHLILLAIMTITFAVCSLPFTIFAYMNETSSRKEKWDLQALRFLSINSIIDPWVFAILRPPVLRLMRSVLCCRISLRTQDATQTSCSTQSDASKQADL
Method: Plate is pre-incubated 15 minutes at 37° C. Then five microliters of PGE2 (final conc. 5 μM) are transferred into the assay plate. Plate is incubated 120 minutes at 37° C.
(each concentration is measured in duplicate)

PTGER4 (EP4) [2] = biological target: T1, PTGER4 (EP4); test: cell-based

Sequence of EP2 (P43116 whole entry): as above

Molecule	IC50 (EP2)	IC50 (EP4)	IC50 (PTGER4 (EP4) [1])	IC50 (PTGER2 (EP2))	IC50 (PTGER4 (EP4) [2])	IC50 (EP4; BT549 cells)
CCOc1cc(-c2cc(NCCc3cc4ccccc4cc3OC(F)F)ncn2)ccc1OCC(=O)O [Ex 129]	494 nM	104 nM	35 nM	–	–	–
CCOc1cc(-c2cc(NCCc3ccc4cccnc4c3C)ncn2)sc1C(=O)O [Ex 22]	395 nM	13 nM	20 nM	–	–	–
CCOc1cc(-c2cc(NCCc3cc(F)c4sccc4c3)ncn2)ccc1C(=O)NCC(C)(C)O [Example 463]	–	–	223 nM	934 nM	–	–
CCOc1cc(-c2cc(NCCc3cc4c(cc3Cl)OC(F)(F)O4)ncn2)sc1C(=O)O [Ex 165]	333 nM	164 nM	188 nM	–	–	–
CCOc1cc(-c2cc(NCCc3cc4c(cc3C#N)OCCO4)ncn2)ccc1C(=O)O [Ex 203]	687 nM	237 nM	352 nM	–	–	–
CCOc1cc(-c2cc(NCCc3cc4c(cc3Cl)NCCO4)ncn2)sc1C(=O)O [Ex 149]	619 nM	144 nM	194 nM	–	–	–
CCOc1cc(-c2cc(NCCc3cc4cccnc4cc3F)ncn2)sc1C(=O)O [Ex 98]	314 nM	64 nM	33 nM	–	–	–
C=Cc1c(CCNc2cc(-c3cc(OCC)c(C(=O)O)s3)ncn2)ccc2ccccc12 [Ex 75]	483 nM	41 nM	86 nM	–	–	–
CCOc1cc(-c2cc(NCCc3ccc4sccc4c3)nc(C)n2)ccc1CC(=O)O [Ex 308]	926 nM	674 nM	866 nM	–	–	–
CCOc1cc(-c2cc(NCCc3cc4ccccc4cc3C#N)ncn2)ccc1C(=O)O [Ex 92]	1680 nM	57 nM	105 nM	–	–	–
CCOc1cc(-c2cc(NCCc3cc4ccccc4cc3OC(C)C)ncn2)sc1C(=O)O [Ex 31]	7740 nM	18 nM	6 nM	–	–	–
COc1cc2c(cc1CCNc1cc(-c3ccc(C(=O)O)c(SC)c3)ncn1)CCCN2 [Ex 329]	755 nM	956 nM	798 nM	–	–	–
O=C(O)c1ccc(-c2cc(NCCc3ccc4cccc(F)c4c3)ncn2)cc1OC1CCC1 [Ex 231]	5650 nM	315 nM	286 nM	–	–	–
CCOc1cc(-c2cc(NCCc3cc4ccccc4cc3C#N)ncn2)ccc1OCC(=O)O [Ex 84]	1280 nM	47 nM	19 nM	–	–	–
C#Cc1c(CCNc2cc(-c3ccc(C(=O)O)c(OCC)c3)ncn2)ccc2ccccc12 [Ex 141]	328 nM	122 nM	131 nM	–	–	–
CCOc1cc(-c2cc(NCCc3ccc4cccc(F)c4c3)ncn2)sc1C(=O)O [Ex 66]	1220 nM	35 nM	21 nM	–	–	–
C#Cc1c(CCNc2cc(-c3ccc(OCC(=O)O)c(OCC)c3)ncn2)ccc2ccccc12 [Ex 140]	459 nM	121 nM	95 nM	–	–	–
CCOc1cc(-c2cc(NCCc3cc4cccnc4c(C)c3Cl)ncn2)ccc1OCC(=O)O [Ex 179]	568 nM	188 nM	309 nM	–	–	–

Molecule	IC50 (EP2)	IC50 (EP4)	IC50 (PTGER4 (EP4) [1])	IC50 (PTGER2 (EP2))	IC50 (PTGER4 (EP4) [2])	IC50 (EP4; BT549 cells)
CSc1cc(-c2cc(NCCc3c(F)cc4ccccc4c3F)ncn2)ccc1C(=O)O [Ex 336]	–	–	113 nM	225 nM	–	–
CCOc1cc(-c2cc(NCCc3cc4ccccc4cc3Cl)ncn2)ccc1C(=O)O [Ex 279]	559 nM	489 nM	743 nM	–	–	–
CCOc1cc(-c2cc(NCCc3cc(C)c4c(c3)OCCO4)ncn2)sc1C(=O)O [Ex 95]	447 nM	59 nM	25 nM	–	–	–
CCOc1cc(-c2cc(NCCc3ccc4ncsc4c3)ncn2)sc1C(=O)O [Ex 91]	586 nM	56 nM	40 nM	–	–	–
CCOc1cc(-c2cc(NCCc3cc4ccn(C)c4cc3F)ncn2)sc1C(=O)O [Ex 16]	269 nM	8 nM	5 nM	–	–	–
(4-{6-[2-(4-Fluoro-benzo[b]thiophen-5-yl)-ethylamino]-pyrimidin-4-yl}-2-trifluoromethoxy-phenyl)-acetic acid [Example 489]	–	–	128 nM	231 nM	–	–
O=C(O)c1ccc(-c2cc(NCCc3c(F)cc4ccccc4c3F)ncn2)cc1OC1CCC1 [Ex 333]	–	–	128 nM	359 nM	–	–
C#Cc1cc2ccccc2cc1CCNc1cc(-c2ccc(OCC(=O)O)c(OCC)c2)ncn1 [Ex 103, (2-Ethoxy-4-{6-[2-(3-ethynyl-naphthalen-2-yl)-ethylamino]-pyrimidin-4-yl}-phenoxy)-acetic acid]	89 nM	71 nM	–	51 nM	18 nM	–
CCOc1cc(-c2cc(NCCc3ccc4ccn(C)c4c3)ncn2)sc1C(=O)O [Ex 42, 3-Ethoxy-5-{6-[2-(1-methyl-1H-indol-6-yl)-ethylamino]-pyrimidin-4-yl}-thiophene-2-carboxylic acid]	137 nM	21 nM	–	240 nM	25 nM	–
CCOc1cc(-c2cc(NCCc3cc(F)c4sccc4c3)ncn2)ccc1-c1noc(=O)[nH]1 [Example 451, 3-(2-Ethoxy-4-{6-[2-(7-fluoro-benzo[b]thiophen-5-yl)-ethylamino]-pyrimidin-4-yl}-phenyl)-[1,2,4]oxadiazol-5(4H)-one]	660 nM	–	–	71 nM	21 nM	16 nM
CCOc1cc(-c2cc(NCCc3cc4ccsc4cc3C)ncn2)ccc1CC(=O)O [Ex 290]	194 nM	527 nM	–	163 nM	438 nM	–
CCOc1cc(-c2cc(NCCc3cc(F)c4sccc4c3)ncn2)sc1CC(=O)O [Example 456, (3-Ethoxy-5-{6-[2-(7-fluoro-benzo[b]thiophen-5-yl)-ethylamino]-pyrimidin-4-yl}-thiophen-2-yl)-acetic acid]	311 nM	–	–	129 nM	21 nM	14 nM
CCOc1cc(-c2cc(NCCc3c(OC)cc4c(c3C)OCCO4)ncn2)ccc1C(=O)O [Example 395, 2-Ethoxy-4-{6-[2-(7-methoxy-5-methyl-2,3-dihydro-benzo[1,4]dioxin-6-yl)-ethylamino]-pyrimidin-4-yl}-benzoic acid]	5 nM	–	–	4 nM	98 nM	128 nM
CC(C)COc1cc(-c2cc(NCCc3cc(F)c4sccc4c3)ncn2)ccc1C(=O)O [Example 453, 4-{6-[2-(7-Fluoro-benzo[b]thiophen-5-yl)-ethylamino]-pyrimidin-4-yl}-2-isobutoxy-benzoic acid]	281 nM	–	–	102 nM	70 nM	118 nM
COc1cc2ccoc2cc1CCNc1cc(-c2ccc(C(=O)O)c(OC3CCC3)c2)ncn1 [Ex 124, 2-Cyclobutoxy-4-{6-[2-(5-methoxy-benzofuran-6-yl)-ethylamino]-pyrimidin-4-yl}-benzoic acid]	95 nM	99 nM	–	113 nM	215 nM	–
CCOc1cc(-c2cc(NCCc3ccc4cc[nH]c4c3)ncn2)sc1C(=O)O [Ex 24, 3-Ethoxy-5-{6-[2-(1H-indol-6-yl)-ethylamino]-pyrimidin-4-yl}-thiophene-2-carboxylic acid]	52 nM	15 nM	–	72 nM	18 nM	–
CCOc1cc(-c2cc(NCCc3cc4ccoc4cc3OC)ncn2)ccc1C(=O)O [Ex 151, 2-Ethoxy-4-{6-[2-(6-methoxy-benzofuran-5-yl)-ethylamino]-pyrimidin-4-yl}-benzoic acid]	35 nM	145 nM	–	32 nM	618 nM	–
